According to US20170073306A1, “POTENT INHIBITORS OF HUMAN CARBONIC ANHYDRASE II AND BOVINE CARBONIC ANHYDRASE II AND THEIR MECHANISM OF ACTION” (priority 2015, published 2017):

Test system: not listed separately
Assay: MTT cytotoxicity assay
Type: cell-based
Conditions: mouse, 3T3 mouse fibroblast cells, 3T3 cells, 50% growth inhibition, read-out: Cytotoxicity IC50 ± SD
Protocol: Cytotoxicity studies were performed using a colorimetric assay that measures the reduction of 3-(4,5-dimethythiazol-2-yl)-2,5-diphenyl tetrazolium bromide (MTT) (yellow in color), by mitochondrial enzyme (i.e. succinate dehydrogenase). The MTT enters into the mitochondria of cell, where it is reduced to an insoluble formazan salt (purple in color). The extent of MTT reduction to formazan within cells was measured spectrophotometrically. As reduction of MTT can only occur in metabolically active cells the level of activity is actually a measure of the viability of the cells^22.
Mouse fibroblast cell line 3T3 was cultured in DMEM, supplemented with 5% of FBS, 100 IU/ml of penicillin and 100 μg/ml of streptomycin, and kept at 37° C. in 5% CO2 incubator. For the preparation of cell culture 100 μL/well of cell solution (5×10^4 cells/ml) was added into 96-well plate. The plate was incubated for overnight, and fresh medium was added after the removal of old medium. The test compounds were also added in different concentrations into the plate and plate was again incubated for 48 hrs. After the completion of this incubation period 200 μL MTT (0.5 mg/ml) was added and plate was again incubated for 4 hrs, after this final incubation 100 μL of DMSO was added to each well. The level of MTT reduction to formazan was evaluated by change in absorbance at 540 nm using a micro plate reader (Spectra Max plus, Molecular Devices, CA, USA).

| Structure (SMILES) | IC50 at 48 h |
| --- | --- |
| NS(=O)(=O)c1ccc(NC(=S)NC(=O)c2ccc([N+](=O)[O-])cc2)cc1 [Compound 4, 4-Nitro-N-(4-sulfamoylphenylcarbamothioyl)benzamide] | > 30000 nM |
| COc1cc(C(=O)NC(=S)Nc2ccc(S(N)(=O)=O)cc2)cc(OC)c1OC [Compound 14, 3,4,5-Trimethoxy-N-(4-sulfamoylphenylcarbamothioyl)benzamide] | > 30000 nM |
| COc1cccc(C(=O)NC(=S)Nc2ccc(S(N)(=O)=O)cc2)c1 [Compound 11, 3-Methoxy-N-(4-sulfamoylphenylcarbamothioyl)benzamide] | > 30000 nM |
| Cc1ccccc1C(=O)NC(=S)Nc1ccc(S(N)(=O)=O)cc1 [Compound 9, 2-Methyl-N-(4-sulfamoylphenylcarbamothioyl)benzamide] | > 30000 nM |

Target: T1, Bovine Carbonic Anhydrase-II (Bos taurus, UniProt P00921)
T1 construct: pure bovine erythrocyte CA-II; from tissue; host or cells: bovine erythrocytes
Assay: Kinetics studies (Lineweaver-Burk, Dixon plots) against Bovine Carbonic Anhydrase-II
Type: biochemical
Design: Vmax app: unit not given here
Conditions: Lineweaver-Burk / Dixon plots
Protocol: FIG. 2B depicts the double reciprocal plot for Ki determination which is between Slope Vs Inhibitor Conc.
FIG. 3B depicts the double reciprocal plot for Ki determination which is between Slope Vs Inhibitor Conc.
Kinetics studies were performed for each analogue. […] The Grafit version 7.0 was used for the construction of Lineveawer-Burk plots and their secondary replots.

T1 sequence (P00921 whole entry): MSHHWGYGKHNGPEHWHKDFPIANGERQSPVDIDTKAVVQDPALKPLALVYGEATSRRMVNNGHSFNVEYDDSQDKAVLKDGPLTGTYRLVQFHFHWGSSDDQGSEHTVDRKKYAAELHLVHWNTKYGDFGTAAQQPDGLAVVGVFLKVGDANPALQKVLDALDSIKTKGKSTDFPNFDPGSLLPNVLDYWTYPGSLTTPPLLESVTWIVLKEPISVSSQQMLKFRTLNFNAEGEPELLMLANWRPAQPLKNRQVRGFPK

| Type of Inhibition | Structure (SMILES) |
| --- | --- |
| Noncompetitive | NS(=O)(=O)c1ccc(NC(=S)NC(=O)c2ccc([N+](=O)[O-])cc2)cc1 [Compound 4, 4-Nitro-N-(4-sulfamoylphenylcarbamothioyl)benzamide] |
| Noncompetitive | COc1cccc(C(=O)NC(=S)Nc2ccc(S(N)(=O)=O)cc2)c1 [Compound 11, 3-Methoxy-N-(4-sulfamoylphenylcarbamothioyl)benzamide] |
| Noncompetitive | Cc1ccccc1C(=O)NC(=S)Nc1ccc(S(N)(=O)=O)cc1 [Compound 9, 2-Methyl-N-(4-sulfamoylphenylcarbamothioyl)benzamide] |

Same assay, conditions: apparent Vmax with inhibitor (0.2-0.00625 μM)

| Vmax app | Structure (SMILES) |
| --- | --- |
| 18.97 | NS(=O)(=O)c1ccc(NC(=S)NC(=O)c2ccc([N+](=O)[O-])cc2)cc1 [Compound 4, 4-Nitro-N-(4-sulfamoylphenylcarbamothioyl)benzamide] |
| 35.21 | COc1cccc(C(=O)NC(=S)Nc2ccc(S(N)(=O)=O)cc2)c1 [Compound 11, 3-Methoxy-N-(4-sulfamoylphenylcarbamothioyl)benzamide] |
| 14.61 | Cc1ccccc1C(=O)NC(=S)Nc1ccc(S(N)(=O)=O)cc1 [Compound 9, 2-Methyl-N-(4-sulfamoylphenylcarbamothioyl)benzamide] |

Same assay, conditions: enzyme Vmax without inhibitor

| Vmax | Structure (SMILES) |
| --- | --- |
| 53.19 (μM/L/min)^−1 | NS(=O)(=O)c1ccc(NC(=S)NC(=O)c2ccc([N+](=O)[O-])cc2)cc1 [Compound 4, 4-Nitro-N-(4-sulfamoylphenylcarbamothioyl)benzamide] |
| 88.49 (μM/L/min)^−1 | COc1cccc(C(=O)NC(=S)Nc2ccc(S(N)(=O)=O)cc2)c1 [Compound 11, 3-Methoxy-N-(4-sulfamoylphenylcarbamothioyl)benzamide] |
| 90.90 (μM/L/min)^−1 | Cc1ccccc1C(=O)NC(=S)Nc1ccc(S(N)(=O)=O)cc1 [Compound 9, 2-Methyl-N-(4-sulfamoylphenylcarbamothioyl)benzamide] |

Same assay, conditions: from secondary replots / Dixon plot; read-out: Ki

| Ki | Structure (SMILES) |
| --- | --- |
| 220 nM | NS(=O)(=O)c1ccc(NC(=S)NC(=O)c2ccc([N+](=O)[O-])cc2)cc1 [Compound 4, 4-Nitro-N-(4-sulfamoylphenylcarbamothioyl)benzamide] |
| 280 nM | COc1cccc(C(=O)NC(=S)Nc2ccc(S(N)(=O)=O)cc2)c1 [Compound 11, 3-Methoxy-N-(4-sulfamoylphenylcarbamothioyl)benzamide] |
| 58 nM | Cc1ccccc1C(=O)NC(=S)Nc1ccc(S(N)(=O)=O)cc1 [Compound 9, 2-Methyl-N-(4-sulfamoylphenylcarbamothioyl)benzamide] |

Target: T2, Bovine Carbonic Anhydrase-II (bovine erythrocyte CA-II) (Bos taurus, UniProt P00921)
T2 construct: pure bovine erythrocyte CA-II; from tissue; host or cells: bovine erythrocytes
Assay: Bovine carbonic anhydrase-II inhibition, 4-nitrophenyl acetate spectrophotometric assay
Type: biochemical
Conditions: 4-nitrophenyl acetate 0.7 mM, pH 7.4, 15 min preincubation; read-out: IC50 ± S.E.M. BCA-II
Protocol: (§1) Nineteen different analogues of benzamide sulfonamides were evaluated for carbonic anhydrase-II inhibition. The rate of catalyzed reaction was monitored by the amount of product formation by using the chromogenic substrate i.e., 4-nitrophenyl acetate.
4-Nitrophenyl acetate (4-NPA) is a colorless compound which is used as a substrate in carbonic anhydrase inhibition assay. The reaction involves the hydrolysis of 4-nitrophenyl acetate into […] and 4-nitrophenol a yellow colored compound. During this experiment, HEPES-tris buffer was used at 20 mM concentration with pH 7.4.
After 15 min of incubation of the enzyme with the test compound, the substrate was added to initiate the reaction. The reaction was carried out in triplicate with different concentrations of test compounds was used.
In this assay protocol, the reaction was performed by using a 96-well flat bottom plate.
The amount of product formation was measured at 400 nm for 30 min with 1 min interval, multiplate reader SPECTRA max 340 (Molecular Devices, CA, USA) was used to monitor the product formation.
The enzyme inhibitory activities were calculated using the following formula:
% Inhibition=100−(O.D of test/O.D of control)*100
(§2) Where test is the enzyme activity with sample and control is the enzyme activity without sample. The IC50 of the compounds were calculated by using EZ-Fit Enzyme Kinetic Program (Perrella Scientific Inc. Amhrest, U.S.A).

T2 sequence (P00921 whole entry): as above

| IC50 | Structure (SMILES) |
| --- | --- |
| 130 ± 2 nM | NS(=O)(=O)c1ccc(NC(=S)NC(=O)c2ccc([N+](=O)[O-])cc2)cc1 [Compound 4, 4-Nitro-N-(4-sulfamoylphenylcarbamothioyl)benzamide] |
| 60 nM | COc1cc(C(=O)NC(=S)Nc2ccc(S(N)(=O)=O)cc2)cc(OC)c1OC [Compound 14, 3,4,5-Trimethoxy-N-(4-sulfamoylphenylcarbamothioyl)benzamide] |
| 90 ± 3 nM | COc1cccc(C(=O)NC(=S)Nc2ccc(S(N)(=O)=O)cc2)c1 [Compound 11, 3-Methoxy-N-(4-sulfamoylphenylcarbamothioyl)benzamide] |
| 80 ± 2 nM | Cc1ccccc1C(=O)NC(=S)Nc1ccc(S(N)(=O)=O)cc1 [Compound 9, 2-Methyl-N-(4-sulfamoylphenylcarbamothioyl)benzamide] |

Target: T3, Human Carbonic Anhydrase-II (human erythrocyte CA-II) (Homo sapiens, UniProt P00918)
T3 construct: purified human erythrocyte CA-II; from tissue; host or cells: human erythrocytes
Assay: HCA-II inhibitory activity, 4-nitrophenyl acetate spectrophotometric assay
Type: biochemical
Conditions: 4-nitrophenyl acetate 0.7 mM, pH 7.4, 25° C., 15 min preincubation; read-out: IC50 ± S.E.M. HCA-II
Protocol: as §1
Hydrolysis of 4-NPA (a colorless compound): yields 4-nitrophenol and […]. The reaction is monitored by quantifying the formation of 4-nitrophenol, a yellow colored compound.
In successive experiments, HEPES-tris was used as a buffer for the reaction at final concentration of 20 mM, with 7.4 pH. The total reaction volume of 200 μL includes, 140 μL of the HEPES-tris, 20 μL of test compound diluted in DMSO (20 μL of DMSO as a control sample), 20 μL of purified human erythrocyte CA-II (0.1 mg/mL) prepared in deionized water and 20 μL of a solution of 4-NPA (0.7 mM diluted in ethanol). Adhesion of enzyme with the plastic-ware was avoided by the addition of bovine serum albumin (1 mg/mL).
The 20 μL of test compound was incubated with enzyme for a period of 15 min. The rate of product formation was monitored with the addition of 20 μL substrate prepared in ethanol at a final concentration of 0.7 mM 4-nitrophenyl acetate at 25° C. for a period of 30 min with regular interval of 1 min.
The assay was performed in triplicates by using 96-well flat bottom plate.
The enzyme inhibitory activities were calculated using the following formula: […]
as §2

| IC50 | Structure (SMILES) |
| --- | --- |
| 240 ± 40 nM | NS(=O)(=O)c1ccc(NC(=S)NC(=O)c2ccc([N+](=O)[O-])cc2)cc1 [Compound 4, 4-Nitro-N-(4-sulfamoylphenylcarbamothioyl)benzamide] |
| 170 ± 2 nM | COc1cc(C(=O)NC(=S)Nc2ccc(S(N)(=O)=O)cc2)cc(OC)c1OC [Compound 14, 3,4,5-Trimethoxy-N-(4-sulfamoylphenylcarbamothioyl)benzamide] |
| 190 ± 5 nM | COc1cccc(C(=O)NC(=S)Nc2ccc(S(N)(=O)=O)cc2)c1 [Compound 11, 3-Methoxy-N-(4-sulfamoylphenylcarbamothioyl)benzamide] |
| 180 ± 4 nM | Cc1ccccc1C(=O)NC(=S)Nc1ccc(S(N)(=O)=O)cc1 [Compound 9, 2-Methyl-N-(4-sulfamoylphenylcarbamothioyl)benzamide] |
